Reference: PubChem BioAssay (NCI)
Several values for one entry are separate records, joined by “and”; a condition that tells them apart may be missing. Equal values may be shown once.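 The compound was tested at five concentrations on cells cultured in 96-well plates, with a 48-hour exposure period. At the GI50, growth is halved. At the TGI there is no net growth.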

Key:
Assay in all cases: NCI-60 cell line screen, 48 h
PC-3 prostate = tested on: PC-3 prostate
A549 NSCLC = tested on: A549 NSCLC
ACHN renal = tested on: ACHN renal
SK-MEL-28 melanoma = tested on: SK-MEL-28 melanoma
COLO 205 colon = tested on: COLO 205 colon
SR leukemia = tested on: SR leukemia
M14 melanoma = tested on: M14 melanoma
RXF 393 renal = tested on: RXF 393 renal
MDA-MB-231 breast = tested on: MDA-MB-231 breast
786-0 renal = tested on: 786-0 renal

SMILES	GI50 (PC-3 prostate)	TGI (PC-3 prostate)	GI50 (A549 NSCLC)	TGI (A549 NSCLC)	GI50 (ACHN renal)	TGI (ACHN renal)	GI50 (SK-MEL-28 melanoma)	TGI (SK-MEL-28 melanoma)	GI50 (COLO 205 colon)	TGI (COLO 205 colon)	GI50 (SR leukemia)	TGI (SR leukemia)	GI50 (M14 melanoma)	TGI (M14 melanoma)	GI50 (RXF 393 renal)	TGI (RXF 393 renal)	GI50 (MDA-MB-231 breast)	TGI (MDA-MB-231 breast)	GI50 (786-0 renal)	TGI (786-0 renal)
CO/N=C(\C)c1ccc(Nc2cc(-c3ccccc3)nc3c(O)cccc23)cc1	13.7 µM	35 µM	12.8 µM	28.9 µM	17.8 µM	34 µM	25.5 µM	84.8 µM	17.2 µM	34.5 µM	5.51 µM	34.7 µM	14.6 µM	29.6 µM	14.2 µM	30 µM	15 µM	30.6 µM	16.3 µM	35.2 µM
CC(CNC(Cc1ccccc1)c1ccccc1)NC(Cc1ccccc1)c1ccccc1 (stereo not given)	2.3 µM	6.42 µM	4.18 µM	15 µM	2.93 µM	8.85 µM	2.84 µM	7.81 µM	1.66 µM	3.46 µM	1.84 µM	4.49 µM	1.79 µM	3.6 µM	1.66 µM	3.19 µM	1.81 µM	3.7 µM	1.67 µM	3.36 µM
CC1OC2CC(=O)OC2C2=C1C(=O)c1c(O)c3c(c(O)c1C2=O)C1CC(O)C3(O)C(C)O1 (stereo not given)	0.533 µM	6.47 µM	0.869 µM	7.74 µM	0.555 µM	10.4 µM	1.21 µM	2.74 µM	0.186 µM	0.453 µM	0.344 µM	5.86 µM	0.242 µM	0.662 µM	1.2 µM	2.51 µM	0.25 µM	0.712 µM	0.635 µM	1.78 µM
O=C1/C(=C/c2ccc(O)cc2)COc2ccc(-c3ccccc3)cc21	5.09 µM	> 63.9 µM	13.2 µM	49.6 µM	12.3 µM	25.1 µM	10.1 µM	24.5 µM	10.6 µM	33.9 µM	1.63 µM	> 28.4 µM	12.2 µM	39.1 µM	3.35 µM	8.25 µM	8.25 µM	27.3 µM	12 µM	32.3 µM
O=C(CCl)N1c2ccccc2Sc2c1ccc1ccccc21	1.74 µM	4.45 µM	9.52 µM	30.3 µM	1.83 µM	3.69 µM	2.98 µM	7.56 µM	1.87 µM	4.06 µM	2.4 µM	9.55 µM	1.68 µM	3.53 µM	1.85 µM	3.43 µM	2.09 µM	4.36 µM	1.82 µM	3.27 µM
CN(C)c1ccc2cc(-c3ccccc3F)c(N)nc2c1	2.21 µM	15.2 µM	2.46 µM	16.4 µM	3.8 µM	17.3 µM	2.57 µM	19.6 µM	1.38 µM	6.35 µM	0.491 µM	4.99 µM	0.448 µM	4.5 µM	2.53 µM	10.8 µM	3.71 µM	19.6 µM	2.49 µM	14.3 µM
CN(CCOc1ccc(C#N)cc1)CCOc1ccc(C#N)cc1	41.6 µM	> 100 µM	> 100 µM	> 100 µM	41.5 µM	> 100 µM	> 100 µM	> 100 µM	> 100 µM	> 100 µM	5.21 µM	61 µM	78.9 µM	> 100 µM	46.8 µM	> 100 µM	> 100 µM	> 100 µM	> 100 µM	> 100 µM
CC[C@H](CC#N)OC(=O)N[C@@H](C)c1cccc(NC(=O)Nc2ccc(-c3cnco3)c(OC)c2)c1	0.0741 µM	31.4 µM	0.0336 µM	20.9 µM	0.0872 µM	45.1 µM	0.0505 µM	21.8 µM	0.0203 µM	18 µM	0.0289 µM	4.3 µM	0.0753 µM	30.5 µM	0.266 µM	> 22.9 µM	0.204 µM	> 89.5 µM	0.188 µM	> 93 µM
Cc1ccc(C(O)c2cnc(C)n2Cc2ccccc2)cc1 (stereo not given)	–	> 100 µM	–	> 100 µM	–	> 100 µM	–	> 100 µM	–	> 100 µM	–	> 100 µM	–	> 100 µM	–	> 100 µM	–	> 100 µM	–	> 100 µM
Cc1cc(C(C#N)c2ccc(Cl)cc2)c(Cl)cc1NC(=O)c1cc(I)cc(I)c1O (stereo not given)	3.18 µM and 11.7 µM	23 µM and 32.5 µM	13.6 µM and 21.3 µM	56.3 µM and 44.5 µM	15.5 µM and 17.2 µM	46.1 µM and 37.1 µM	5.42 µM and 14.8 µM	19.7 µM and 30.3 µM	15.2 µM and 16.2 µM	28.8 µM and 29.7 µM	5.97 µM and 9.04 µM	34.5 µM and > 100 µM	14.7 µM and 16.3 µM	29.9 µM and 34.2 µM	10.8 µM and 5.95 µM	23.7 µM and 19.4 µM	5.48 µM and 14.2 µM	23.9 µM and 37.9 µM	12.6 µM and 16.6 µM	25.1 µM and 34.7 µM
CCCCn1cnc2c(SC)ncnc21	–	> 100 µM	–	> 100 µM	–	> 100 µM	–	> 100 µM	–	> 100 µM	–	94.4 µM	–	> 100 µM	–	> 100 µM	–	> 100 µM	–	> 100 µM
COc1ccc2c(c1)OC(N(C(C)=O)C(C)=O)=C(C#N)C2c1ccc(F)cc1 (stereo not given)	2.2 µM	> 100 µM	4.45 µM	> 100 µM	4.18 µM	> 100 µM	9.97 µM	> 100 µM	2.2 µM	7.26 µM	0.653 µM	> 100 µM	0.482 µM	> 100 µM	1.77 µM	9.63 µM	2.4 µM	> 100 µM	3.52 µM	> 100 µM
CC(=O)Nc1ccc2c(c1)oc(=O)c1cc(NC(C)=O)ccc12	92.4 µM	> 100 µM	> 100 µM	> 100 µM	> 100 µM	> 100 µM	> 100 µM	> 100 µM	41.7 µM	> 100 µM	8.52 µM	77.4 µM	91.6 µM	> 100 µM	> 100 µM	> 100 µM	48.5 µM	> 100 µM	> 100 µM	> 100 µM
Oc1ccc(CCCCCCc2ccc(O)cc2)cc1	9.87 µM	27.5 µM	6.62 µM	23 µM	1.55 µM	12 µM	17 µM	31.5 µM	15.2 µM	29.4 µM	6.15 µM	> 100 µM	4.7 µM	17.5 µM	8.03 µM	21.5 µM	9.66 µM	25.9 µM	3.65 µM	15.1 µM
CC(=O)O[C@@H]1CC2C(C)(C)CCCC2(C)C2=C1C(=O)C(C(C)C)=CC2=O (stereo not given in full)	2.45 µM	12.9 µM	1.43 µM	5.83 µM	0.644 µM	1.96 µM	0.691 µM	3.43 µM	1.88 µM	4.11 µM	0.653 µM	> 100 µM	0.46 µM	2.34 µM	0.757 µM	2.27 µM	0.657 µM	3.13 µM	0.781 µM	6.95 µM
